Measurements from ChEMBL document CHEMBL1221208, “ATP-competitive inhibitors of the mitotic kinesin KSP that function via an allosteric mechanism” (Nat Chem Biol, 2007).
Where a chain is given by its changes, count along the chain named. Activity calls are given as the source filed them. The calls are words filed in the database; no cut-off is given here.

Legend:
[1] = test system: T1, Kinesin-like protein KIF11 (Homo sapiens), P52732 [D130V]; experiment: Uncompetitive inhibition of human KSP D130V mutant with respect to microtubule using varying ATP levels in presence of saturating levels of microtubule by Lineweaver-Burke plot
T1 sequence (whole entry): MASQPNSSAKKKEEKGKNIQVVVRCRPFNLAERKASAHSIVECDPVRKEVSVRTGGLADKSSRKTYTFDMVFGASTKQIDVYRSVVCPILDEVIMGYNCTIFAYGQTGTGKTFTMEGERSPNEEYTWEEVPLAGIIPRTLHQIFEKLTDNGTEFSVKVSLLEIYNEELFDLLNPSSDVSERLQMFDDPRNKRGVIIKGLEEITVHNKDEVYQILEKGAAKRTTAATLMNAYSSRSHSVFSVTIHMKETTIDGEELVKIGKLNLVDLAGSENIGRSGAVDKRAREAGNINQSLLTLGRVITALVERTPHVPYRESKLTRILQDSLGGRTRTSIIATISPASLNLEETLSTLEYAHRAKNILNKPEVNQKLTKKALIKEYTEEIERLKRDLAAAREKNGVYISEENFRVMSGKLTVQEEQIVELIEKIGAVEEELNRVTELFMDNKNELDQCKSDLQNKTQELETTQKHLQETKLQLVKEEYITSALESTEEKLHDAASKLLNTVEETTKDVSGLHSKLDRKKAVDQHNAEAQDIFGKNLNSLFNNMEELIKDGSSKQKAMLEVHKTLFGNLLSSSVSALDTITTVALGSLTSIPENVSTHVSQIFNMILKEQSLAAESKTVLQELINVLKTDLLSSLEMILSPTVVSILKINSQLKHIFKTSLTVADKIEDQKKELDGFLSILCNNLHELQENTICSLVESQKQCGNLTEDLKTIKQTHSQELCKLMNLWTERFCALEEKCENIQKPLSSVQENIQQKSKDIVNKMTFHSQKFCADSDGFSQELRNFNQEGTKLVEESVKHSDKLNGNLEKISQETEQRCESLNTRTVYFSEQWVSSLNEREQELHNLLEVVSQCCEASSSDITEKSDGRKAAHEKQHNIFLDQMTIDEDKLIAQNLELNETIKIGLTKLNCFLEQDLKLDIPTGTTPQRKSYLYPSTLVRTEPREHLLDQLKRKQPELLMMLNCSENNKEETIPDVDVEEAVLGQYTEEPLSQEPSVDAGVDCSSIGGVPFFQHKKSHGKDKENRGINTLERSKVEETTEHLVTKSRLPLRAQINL

[2] = test system: T2, Kinesin-like protein KIF11 (Homo sapiens), P52732 [A133D]; experiment: Competitive inhibition of human KSP A133D mutant with respect to ATP using varying ATP levels in presence of saturating levels of microtubule by Lineweaver-Burke plot
T2 sequence (whole entry): T1 sequence (whole entry) with V130D, A133D

Row | inhibition [1] | inhibition [2] | Compound
1 | Active | Active | NC(=O)Nc1ccc(-c2ccc(C(F)(F)F)cc2)cc1F
2 | Active | Active | O=C1CCc2cc(-c3ccc(C(F)(F)F)cc3)ccc2N1
